Experimental data from patent US8501803B2, “Garcinia derivative, its preparing method and medicinal use” (China Pharmaceutical University, priority 2010, dated 2013).

How the values were obtained:
[1] = tested on: BGC-823 cells (human gastric carcinoma cells); assay: MTT antiproliferative test on BGC-823 cells; format: cell-based; conditions: 96 h, 4 days culture, BGC-823 human gastric carcinoma cells, read-out: BGC-823 cell IC50
Protocol: (§1) Test method: The cells of log phase are cultivated in the culture plate with 96 pores, and each pore contains 100 μL of solution (including 1000-1200 tumor cells). The next day, different concentrations of the present compound are added to the treatment groups, each compound contains 4 to 5 dosage groups, and each dosage group contains at least 3 parallel pores. The solvent with an equivalent volume of the said compound is added to the control groups. The said culture plate is then placed in a 5% CO2 incubator, cultured at 37° C., and the culture solution is discharged 4 days later. Next, 200 μL of the 0.2% MTT solution (RPMI1640 preparation) is added to each pore and incubated at 37° C. for 4 hours; the obtained supernatant is discharged; and 150 μL of DMSO is added to each pore so as to dissolve formazane particles. After slightly shaking the mixture, the optical density (OD) is measured by the ELIASA in the conditions of a resulting reference wavelength 450 nm and a detection wavelength 570 nm. The tumor cells treated with solvent are used as control groups, and the inhibition rate of the drugs against the tumor cells and IC50 are calculated according to the following equation. […] The MCF-7 cells are human breast cancer cells and the BGC-823 cells are human gastric carcinoma cells.

[2] = tested on: MCF-7 cells (human breast cancer cells); assay: MTT antiproliferative test on MCF-7 cells; format: cell-based; conditions: MCF7, 96 h, 4 days culture, MCF-7 human breast cancer cells, read-out: MCF-7 cell IC50
Protocol: as §1

Row | melting point [°C] | IC50 [1] [µM] | IC50 [2] [µM] | Compound
1 | 203 to 205 | – | – | CC(C)=CCC12OC(C)(C)C3CC(C=C4C(=O)c5cccc(O)c5OC431)C2=O (stereo not drawn)
2 | 157 to 158 | 11.3 | 9.06 | CC(C)=CCc1ccc2c(c1O)OC13C(=CC4CC1C(C)(C)OC3(CC=C(C)C)C4=O)C2=O (stereo not drawn) [CPUY I-8, 3,3a,4,5-tetrahydro-3,3-dimethyl-1,10-bis(3-methyl-2-butenyl)-11-hydroxyl-1,5-dimeth ylene-1H,7H-furan[3,4-d]xanthene-7,13-diketone]
3 | – | 3.59 | 9.16 | CC(C)=CCC12OC(C)(C)C3CC(C=C4C(=O)c5c(O)cccc5OC431)C2=O (stereo not drawn) [CPUY I-1, 3,3a,4,5-tetrahydro-3,3-dimethyl-1-(3-methyl-2-butenyl)-8-hydroxyl-1,5-dimethylene-1H,7H-furan[3,4-d]xanthene-7,13-diketone]
4 | 197 to 199 | 17.6 | 12.4 | CC(C)=CCC12OC(C)(C)C3CC(C=C4C(=O)c5ccc(O)cc5OC431)C2=O (stereo not drawn) [CPUY I-2, 3,3a,4,5-tetrahydro-3,3-dimethyl-1-(3-methyl-2-butenyl)-10-hydroxyl-1,5-dimethylene-1H,7H-furan[3,4-d]xanthene-7,13-diketone]
5 | 158 to 159 | – | – | CC(C)=CCC12OC(C)(C)C3CC(C=C4C(=O)c5cc(O)ccc5OC431)C2=O (stereo not drawn)
6 | 148 to 150 | 18.2 | 10.9 | CC(C)=CCc1cc2c(cc1O)C(=O)C1=CC3C4CC1(O2)C(=O)C3(CC=C(C)C)OC4(C)C (stereo not drawn) [CPUY I-7, 1,3a,4,11a-tetrahydro-3,3-dimethyl-1,7-bis(3-methyl-2-butenyl)-8-hydroxyl-3H-1,4-a-dimethylene-10H-furan[3,4-b]xanthene-10,12-diketone]

Row | Compound | melting point [°C] | IC50 [1] [µM] | IC50 [2] [µM]
7 | CC(C)=CCc1c(O)ccc2c1C(=O)C1=CC3CC4C(C)(C)OC(CC=C(C)C)(C3=O)C14O2 (stereo not drawn) [CPUY I-6, 3,3a,4,5-tetrahydro-3,3-dimethyl-1,8-bis(3-methyl-2-butenyl)-9-hydroxyl-1,5-dimethylene-1H,7H-furan[3,4-d]xanthene-7,13-diketone] | 138 to 139 | 21.7 | 11.9
8 | CC(C)=CCc1c(O)ccc2c1OC13C(=CC4CC1C(C)(C)OC3(CC=C(C)C)C4=O)C2=O (stereo not drawn) [CPUY I-5, 3,3a,4,5-tetrahydro-3,3-dimethyl-1,11-bis(3-methyl-2-butenyl)-10-hydroxyl-1,5-dimethylene-1H,7H-furan[3,4-d]xanthene-7,13-diketone] | 158 to 160 | 15 | 5.79
9 | CC(C)=CCC[C@]1(C)C=Cc2c(O)c3c(c(CC=C(C)C)c2O1)O[C@]12C(=C[C@@H]4C[C@H]1C(C)(C)O[C@@]2(C/C=C(/C)C(=O)O)C4=O)C3=O [Gambogic acid, gambogic acid, reference compound] | – | 2.35 | 2.19
